Data taken from PubChem BioAssay (NCI).
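A five-concentration, 48-hour dose response in 96-well plates underlies each endpoint, interpolated linearly between surrounding concentrations. TGI denotes the concentration required for complete inhibition of growth.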 The source made the active and inactive calls. No stated cut-off is given here; in the data, active means GI50 below about 0.43 µM; inactive means the rest.

Tests used:
Experiment in all cases: NCI anticancer screen, dose series, 48 h
786-0 renal = system: 786-0 renal
A498 renal = system: A498 renal
ACHN renal = system: ACHN renal
CAKI-1 renal = system: CAKI-1 renal
CCRF-CEM leukemia = system: CCRF-CEM leukemia
COLO 205 colon = system: COLO 205 colon
DLD-1 colon = system: DLD-1 colon
DMS 273 small cell lung = system: DMS 273 small cell lung
EKVX NSCLC = system: EKVX NSCLC
HCC-2998 colon = system: HCC-2998 colon
HCT-116 colon = system: HCT-116 colon
HCT-15 colon = system: HCT-15 colon
HOP-62 NSCLC = system: HOP-62 NSCLC
HOP-92 NSCLC = system: HOP-92 NSCLC
HT29 colon = system: HT29 colon
IGROV1 ovarian = system: IGROV1 ovarian
K-562 leukemia = system: K-562 leukemia
KM12 colon = system: KM12 colon
LOX IMVI melanoma = system: LOX IMVI melanoma
LXFL 529 NSCLC = system: LXFL 529 NSCLC
M14 melanoma = system: M14 melanoma
M19-MEL melanoma = system: M19-MEL melanoma
MOLT-4 leukemia = system: MOLT-4 leukemia
NCI-H226 lung = system: NCI-H226 lung
NCI-H23 lung = system: NCI-H23 lung
NCI-H460 lung = system: NCI-H460 lung
NCI-H522 lung = system: NCI-H522 lung
OVCAR-3 ovarian = system: OVCAR-3 ovarian
OVCAR-4 ovarian = system: OVCAR-4 ovarian
OVCAR-5 ovarian = system: OVCAR-5 ovarian
OVCAR-8 ovarian = system: OVCAR-8 ovarian
RPMI-8226 leukemia = system: RPMI-8226 leukemia
RXF 393 renal = system: RXF 393 renal
SF-268 CNS = system: SF-268 CNS
SF-295 CNS = system: SF-295 CNS
SF-539 CNS = system: SF-539 CNS
SK-MEL-2 melanoma = system: SK-MEL-2 melanoma
SK-MEL-28 melanoma = system: SK-MEL-28 melanoma
SN12C renal = system: SN12C renal
SNB-19 CNS = system: SNB-19 CNS
SNB-75 CNS = system: SNB-75 CNS
SR leukemia = system: SR leukemia
SW-620 colon = system: SW-620 colon
TK-10 renal = system: TK-10 renal
U251 CNS = system: U251 CNS
UACC-257 melanoma = system: UACC-257 melanoma
UACC-62 melanoma = system: UACC-62 melanoma
UO-31 renal = system: UO-31 renal
XF 498 CNS = system: XF 498 CNS
A549 NSCLC = system: A549 NSCLC
DMS 114 small cell lung = system: DMS 114 small cell lung
KM20L2 colon = system: KM20L2 colon
MALME-3M melanoma = system: MALME-3M melanoma
SK-MEL-5 melanoma = system: SK-MEL-5 melanoma
SK-OV-3 ovarian = system: SK-OV-3 ovarian
SNB-78 CNS = system: SNB-78 CNS
HL-60(TB) leukemia = system: HL-60(TB) leukemia

SMILES: O=C1c2ccccc2C(=O)c2c1ccc(O)c2O
- TGI (786-0 renal): > 100 µM
- TGI (A498 renal): > 100 µM
- TGI (ACHN renal): > 100 µM
- TGI (CAKI-1 renal): > 100 µM
- TGI (CCRF-CEM leukemia): > 100 µM
- TGI (COLO 205 colon): > 100 µM
- TGI (DLD-1 colon): > 100 µM
- TGI (DMS 273 small cell lung): > 100 µM
- TGI (EKVX NSCLC): > 100 µM
- TGI (HCC-2998 colon): > 100 µM
- TGI (HCT-116 colon): > 100 µM
- TGI (HCT-15 colon): > 100 µM
- TGI (HOP-62 NSCLC): > 100 µM
- TGI (HOP-92 NSCLC): > 100 µM
- TGI (HT29 colon): > 100 µM
- TGI (IGROV1 ovarian): > 100 µM
- TGI (K-562 leukemia): > 100 µM
- TGI (KM12 colon): > 100 µM
- TGI (LOX IMVI melanoma): > 100 µM
- TGI (LXFL 529 NSCLC): > 100 µM
- TGI (M14 melanoma): > 100 µM
- TGI (M19-MEL melanoma): > 100 µM
- TGI (MOLT-4 leukemia): > 100 µM
- TGI (NCI-H226 lung): > 100 µM
- TGI (NCI-H23 lung): > 100 µM
- TGI (NCI-H460 lung): > 100 µM
- TGI (NCI-H522 lung): > 100 µM
- TGI (OVCAR-3 ovarian): > 100 µM
- TGI (OVCAR-4 ovarian): > 100 µM
- TGI (OVCAR-5 ovarian): > 100 µM
- TGI (OVCAR-8 ovarian): > 100 µM
- TGI (RPMI-8226 leukemia): > 100 µM
- TGI (RXF 393 renal): 88.7 µM
- TGI (SF-268 CNS): > 100 µM
- TGI (SF-295 CNS): > 100 µM
- TGI (SF-539 CNS): > 100 µM
- TGI (SK-MEL-2 melanoma): > 100 µM
- TGI (SK-MEL-28 melanoma): > 100 µM
- TGI (SN12C renal): > 100 µM
- TGI (SNB-19 CNS): > 100 µM
- TGI (SNB-75 CNS): 69.2 µM
- TGI (SR leukemia): > 100 µM
- TGI (SW-620 colon): > 100 µM
- TGI (TK-10 renal): > 100 µM
- TGI (U251 CNS): > 100 µM
- TGI (UACC-257 melanoma): > 100 µM
- TGI (UACC-62 melanoma): 55.3 µM
- TGI (UO-31 renal): > 100 µM
- TGI (XF 498 CNS): > 100 µM

SMILES: CC1(C)CC(/C=C2/OC(=O)c3ccccc32)=C(C(N)=O)C(=O)O1
- TGI (786-0 renal): > 100 µM
- TGI (A549 NSCLC): > 100 µM
- TGI (CAKI-1 renal): > 100 µM
- TGI (CCRF-CEM leukemia): > 100 µM
- TGI (COLO 205 colon): > 100 µM
- TGI (DLD-1 colon): > 100 µM
- TGI (DMS 114 small cell lung): > 100 µM
- TGI (DMS 273 small cell lung): > 100 µM
- TGI (EKVX NSCLC): > 100 µM
- TGI (HCC-2998 colon): > 100 µM
- TGI (HCT-116 colon): > 100 µM
- TGI (HCT-15 colon): > 100 µM
- TGI (HOP-62 NSCLC): > 100 µM
- TGI (HT29 colon): > 100 µM
- TGI (IGROV1 ovarian): > 100 µM
- TGI (K-562 leukemia): > 100 µM
- TGI (KM12 colon): > 100 µM
- TGI (KM20L2 colon): > 100 µM
- TGI (LOX IMVI melanoma): > 100 µM
- TGI (LXFL 529 NSCLC): > 100 µM
- TGI (M14 melanoma): > 100 µM
- TGI (M19-MEL melanoma): > 100 µM
- TGI (MALME-3M melanoma): > 100 µM
- TGI (MOLT-4 leukemia): > 100 µM
- TGI (NCI-H226 lung): > 100 µM
- TGI (NCI-H23 lung): > 100 µM
- TGI (NCI-H460 lung): > 100 µM
- TGI (NCI-H522 lung): > 100 µM
- TGI (OVCAR-3 ovarian): > 100 µM
- TGI (OVCAR-4 ovarian): > 100 µM
- TGI (OVCAR-5 ovarian): > 100 µM
- TGI (OVCAR-8 ovarian): > 100 µM
- TGI (RPMI-8226 leukemia): > 100 µM
- TGI (SF-268 CNS): > 100 µM
- TGI (SF-295 CNS): > 100 µM
- TGI (SF-539 CNS): > 100 µM
- TGI (SK-MEL-2 melanoma): > 100 µM
- TGI (SK-MEL-28 melanoma): > 100 µM
- TGI (SK-MEL-5 melanoma): > 100 µM
- TGI (SK-OV-3 ovarian): > 100 µM
- TGI (SN12C renal): > 100 µM
- TGI (SNB-19 CNS): > 100 µM
- TGI (SNB-75 CNS): > 100 µM
- TGI (SNB-78 CNS): > 100 µM
- TGI (SR leukemia): > 100 µM
- TGI (SW-620 colon): > 100 µM
- TGI (U251 CNS): > 100 µM
- TGI (UACC-257 melanoma): > 100 µM
- TGI (UACC-62 melanoma): > 100 µM
- TGI (UO-31 renal): > 100 µM
- TGI (XF 498 CNS): > 100 µM

SMILES: C=C1C(=O)O[C@@H]2C1C(OC(C)CCC)[C@@H](O)[C@@H](C)C(O)C1O[C@]1(C)[C@H]2O (some centres not stated)
- outcome (786-0 renal): inactive
- outcome (A549 NSCLC): inactive
- outcome (ACHN renal): inactive
- outcome (CAKI-1 renal): inactive
- outcome (CCRF-CEM leukemia): inactive
- outcome (COLO 205 colon): inactive
- outcome (DLD-1 colon): inactive
- outcome (DMS 114 small cell lung): inactive
- outcome (DMS 273 small cell lung): inactive
- outcome (EKVX NSCLC): inactive
- outcome (HCC-2998 colon): inactive
- outcome (HCT-15 colon): inactive
- outcome (HL-60(TB) leukemia): inactive
- outcome (HOP-62 NSCLC): inactive
- outcome (HOP-92 NSCLC): inactive
- outcome (HT29 colon): inactive
- outcome (IGROV1 ovarian): inactive
- outcome (K-562 leukemia): inactive
- outcome (KM12 colon): inactive
- outcome (KM20L2 colon): inactive
- outcome (LOX IMVI melanoma): inactive
- outcome (LXFL 529 NSCLC): inactive
- outcome (M14 melanoma): inactive
- outcome (M19-MEL melanoma): inactive
- outcome (MALME-3M melanoma): inactive
- outcome (MOLT-4 leukemia): inactive
- outcome (NCI-H226 lung): inactive
- outcome (NCI-H23 lung): inactive
- outcome (NCI-H460 lung): inactive
- outcome (NCI-H522 lung): inactive
- outcome (OVCAR-3 ovarian): inactive
- outcome (OVCAR-4 ovarian): inactive
- outcome (OVCAR-5 ovarian): inactive
- outcome (OVCAR-8 ovarian): inactive
- outcome (RPMI-8226 leukemia): inactive
- outcome (RXF 393 renal): inactive
- outcome (SF-268 CNS): inactive
- outcome (SF-295 CNS): inactive
- outcome (SF-539 CNS): inactive
- outcome (SK-MEL-2 melanoma): inactive
- outcome (SK-OV-3 ovarian): inactive
- outcome (SN12C renal): inactive
- outcome (SNB-19 CNS): inactive
- outcome (SNB-75 CNS): inactive
- outcome (SNB-78 CNS): inactive
- outcome (SR leukemia): inactive
- outcome (SW-620 colon): inactive
- outcome (U251 CNS): inactive
- outcome (UACC-257 melanoma): inactive
- outcome (UACC-62 melanoma): inactive
- outcome (UO-31 renal): inactive
- outcome (XF 498 CNS): inactive
